The text below walks through data of paper PMC12469269, “Investigating SMR Peptide Interactions with Breast Cancer-Associated Proteins” (International Journal of Molecular Sciences, 2025).

For this test, the system named is exNef-GFP secretion in MDA-MB-231, MCF-7, BT474 BC cells and Jurkat T cells. The test is described as follows: Nef-driven exNef-GFP secretion (Figure 3), three BC cell lines and Jurkat T cells. The class given is cell-based, human. As for the experimental part: Figure 3 Effects of Mortalin-derived peptides on viral Nef-driven exNef secretion. (A) MDA-MB-231, (B) MCF-7, (C) BT474 BC cells, and (D) Jurkat T cells were co-transfected with 1 µg of wild-type Nef-GFP clone and 200 ng of various Mortalin-scanning peptides. The cells were then placed in a 24-well plate and incubated at 37 °C for 24 h before being assayed for extracellular vesicle secretion. Cells were also co-transfected with SMRwt or SMRmut peptides as positive and negative controls, respectively. The amount of GFP fluorescence measured was equivalent to the amount of exNef-GFP in the extracellular media. […] The bar graphs display relative levels of exosome release. In here, asterisks (* p < 0.05, ** p < 0.005, *** p < 0.0005, and **** p < 0.00005) are used to indicate levels of statistical significance. The more asterisks, the stronger the statistical significance. Data represents the mean ± SD from three independent experiments.
Co-transfections of cells with peptides were carried out using Lipofectamine Reagent (Fisher Scientific), following the manufacturer’s protocol. One day prior to transfection, cells were trypsinized and plated at a density of 6.25 × 10^5 cells per well in 2 mL of complete growth medium. […] The cell transfection efficiency was calculated by counting the green, fluorescent cells using a fluorescence microscope.

“Also recorded” adds a separate entry of the source.

Consider “DQLPADECNKLKEEISKMRE [#61, Mortalin scanning peptide 61]”, for which the “effect on Nef function (exNef-GFP secretion), in words” value (1 µg Nef-GFP + 200 ng peptide, co-transfected, 37 °C, 24 h, GFP fluorescence, three independent experiments) is listed as “significant reduction in exNef-GFP secretion; also recorded: inhibit Nef function”. Moreover, where the note is “inferred from exNef secretion (Figures 2 and 3)”, the “interaction with NefSMR domain / Nef / SMRwt peptide, in words” value is “bind HIV-1 Nef and the SMRwt peptide; also recorded: can interact with the NefSMR domain; also recorded: bound the SMR domain and effectively inhibited Nef activity”.
